For assay [1], the system named is monkey ES cell line transfected with an αMHC promoter-driven GFP gene. In words: Chemical screening: GFP fluorometry for cardiac differentiation of monkey ES cells. It is filed as cell-based, cynomolgus monkey. The following applies: for intensity of GFP fluorescence relative to control culture (KY02111 only, assigned to one): GFP fluorometry day 9. Here is the method:
Pluripotent stem cells were cultured in culture media to which the test compounds were added in different concentrations (0.3 μM, 1 μM, 3 μM and 10 μM) in early phase and late phase of differentiation of the cells. Cells from the culture were subjected to GFP fluorometry in accordance with the cardiac differentiation protocol shown in FIG. 1a. Besides the test compounds, 10 μM KY02111 was included in the culture media for the late phase differentiation. The intensity of GFP fluorescence determined in the cells from the control culture, which was cultured with no test compound other than KY02111, was assigned to one.
The scheme of chemical screening is illustrated in FIG. 1a. Compounds were screened for the ability of increasing GFP fluorescence compared with the control (KY02111 alone) using a monkey ES cell line transfected with an αMHC promoter-driven GFP gene (Minami et al., Cell Reports 2, 1448-1460, 2012, which is incorporated herein by reference). The ES cell line was derived from a monkey ES cell line (cynomolgus monkey CMK6.4) by transfecting the cells with a vector which expresses green fluorescent protein (GFP) under control by a promoter of α-MHC gene (a marker of cardiac differentiation). The cells were plated at 4.0×10^5 cells per well in 6 well plates (Asahi Glass/5816-006: Ezview culture plates) and cultured for nine days in an IMDM-based medium for cardiac differentiation (200 ml IMDM medium (Sigma 13390), with 50 ml calf serum (GIBCO 10099-141), 2.5 ml MEM non-essential amino acid solution (Sigma M7145), 2.5 ml penicillin-streptomycin ([…]), 2.5 ml 200 mM L-glutamine, 2 ul 2-mercaptoethanol (Sigma M7522), and 255 ul 5N NaOH). Each test compound was added to the medium at different concentrations in the early phase (day 0 to day 3) and the late phase (day 4 to day 7) of cardiac differentiation. Cells obtained from the culture on day 9 were subjected to GFP fluorometry with a Metamorph imaging system. […]

Assay [2] deals with mesoderm-related genes (MSGN1, T, MIXL1 and NODAL). As to the kind of experiment: Quantitative PCR for expression of mesoderm-related genes under PFCD condition. The assay is classed as cell-based, human. The settings on record: IMR90-1; for expression of the mesoderm-related genes (MSGN1, T, MIXL1 and NODAL) vs DMSO control: 2 μM CHIR99021 or 0.3 μM PMA alone, day 0 to day 2, mRNA on day 2, FIG. 3e. Here is the method:
A human iPS cell line (IMR90-1 cultured on MEF feeder) was cultured in PFCD culture media, to which 2 μM CHIR99021 or 0.3 μM PMA or the both (CHIR99021+PMA) were added for early phase of cardiac differentiation (day 0 to day 2). On day 2, mRNA was extracted the cultured cells and analyzed by quantitative PCR for the expression of mesoderm-related genes (MSGN1, T, MIXL1 and NODAL) (FIG. 3e). As a control, cells were cultured similarly, but with DMSO in place of the test compounds. The gene expression level in the control cells was assigned to one. […] In contrast, the expression of the genes was reduced when PMA was added to the culture. However, the reduction in gene expression by PMA was counteracted and reversed when CHIR99021 was added in combination with PMA (in accordance with the optimal PFCD condition).
A human iPS cell line (IMR90-1 from culture on MEF feeder) was cultured in PFCD media with one of 1 μM XAV939, 0.3 μM A419259, 10 μM AG1478 or 3 μM KY03-I, or all of them (XAV939+A419259+AG1478+KY03-I) in late phase of cardiac differentiation (day 3 to day 4). On day 4, mRNA was extracted from the cultured cells and analyzed by quantitative PCR for the expression of mesoderm-related genes (MSGN1, T, MIXL1 and NODAL) (FIG. 3f).

In assay [3] the test system is monkey ES cell line transfected with an αMHC promoter-driven GFP gene. As to the kind of experiment: Chemical screening: GFP fluorometry for cardiac differentiation of monkey ES cells. It is filed as cell-based, cynomolgus monkey. The following applies: alone or in combination with KY02111 (10 μM in late phase).
Assay [4] deals with cells from suspension or adhesion culture of IMR90-1 under PFCD condition. In words: Whole-cell patch clamp electrophysiology of PFCD cardiomyocytes. The assay is classed as cell-based, human. The following applies: IMR90-1 PFCD cardiomyocytes, day 30; FIG. 4k. From the text:
Comparison was made between cells from suspension culture and cells from adhesion culture in terms of electrophysiology of cells by using a whole-cell patch clamp technique. For this purpose, IMR90-1 (from culture on MEF feeder) was suspension or adhesion cultured under PFDC condition. Cells were harvested on day 30 for the analysis. In action potential waveforms in the cells from suspension culture and the cells from adhesion culture, there was no significant difference between the cell populations in terms of RP (resting potential; around −60 mV) (FIGS. 4d and 4e) and APD90 (action potential duration; about 0.7 sec) (FIGS. 4d and 4g). […] ICa (Voltage-gated Ca channel current) was also higher in the cells from suspension culture than the cells from adhesion culture, but the difference was not significant (FIG. 4i). […] IKs (KCQN1 channel current) was higher in the cells from suspension culture than the cells from adhesion culture (FIG. 4j).
Background: Patch clamp records ionic current or voltage across a cell membrane.

For a further assay, the system named is IMR90-1. As to the kind of experiment: Count of differentiated cardiomyocytes after culture under PFCD condition. It is filed as cell-based, human. The following applies: IMR90-1, PFCD suspension culture, day 14; FIG. 3d. The text has this:
The differentiated cardiomyocytes was counted in the cell population from suspension or adhesion culture under PFCD condition of the pluripotent stem cell lines. The counts of differentiated cells per 2×10^6 undifferentiated cells are shown in the graph of FIG. 2d. The differentiation was more induced by suspension culture than adhesion culture in most of the stem cell lines. The cell count, as well as the flow cytometry, was taken on day 14.
To determine the contribution of each of the six compounds (CHIR99021, PMA, KY03-I, XAV939, AG1478, and A419259) to PFCD under suspension culture condition, IMR90-1 (from culture on MEF feeder) was cultured in media to which different combinations of five of the compounds were added. Cells from the culture were analyzed by flow cytometry using a cTnT antibody for staining. A part of the cells from culture were not treated with the primary antibody to serve as a negative control. Thirty thousand cells from each sample were loaded to a flow cytometer FACSCantoII.
The differentiated cardiomyocytes was counted in a cultured cell population corresponding to that of FIG. 3c. […] The cell count, as well as the flow cytometry, was taken on day 14.

Assay [5] relates to monkey ES cell line transfected with an α-MHC promoter-driven GFP gene. The settings on record: culture with PMA (all six compounds); without PMA (other five compounds) only weak fluorescence; FIG. 3a. From the text:
A monkey ES cell line transfected with an α-MHC promoter-driven GFP gene was suspension cultured under PFCD condition in culture media with PMA (with all the six compounds added) or without PMA (with the five compounds other than PMA added) (FIG. 2a). The cells from the culture with PMA are shown in the left-hand micrographs, and the cells from the culture without PMA are shown in the right-hand micrographs.

Setting [6] is: 1 μM XAV939, 0.3 μM A419259, 10 μM AG1478, 3 μM KY03-I, day 3 to day 4, mRNA on day 4, FIG. 3f.
Where [7] appears, read: 10 to 30 μM in late phase, FIG. 1d.

Structures are written as SMILES.

For the compound `COc1cc2ncnc(Nc3cccc(Cl)c3)c2cc1OC` [AG1478], the “intensity of GFP fluorescence relative to control culture (KY02111 only, assigned to one)” value in assay [1] (test compound 0.3 μM in Early phase (day 0 to day 3), 10 μM KY02111 in late phase) amounted to 0.97; in assay [1] (test compound 0.3 μM in Late phase (day 4 to day 7) with 10 μM KY02111), 1.24; in assay [1] (test compound 1 μM in Early phase (day 0 to day 3), 10 μM KY02111 in late phase), 0.89; in assay [1] (test compound 1 μM in Late phase (day 4 to day 7) with 10 μM KY02111) it was 1.53; in assay [1] (test compound 3 μM in Early phase (day 0 to day 3), 10 μM KY02111 in late phase), 0.35; in assay [1] (test compound 3 μM in Late phase (day 4 to day 7) with 10 μM KY02111) it was 2.03. Also, the “intensity of GFP fluorescence relative to control culture (KY02111 only, assigned to one)” value turned out to be 0.05 in assay [1] (test compound 10 μM in Early phase (day 0 to day 3), 10 μM KY02111 in late phase) and 3.24 in assay [1] (test compound 10 μM in Late phase (day 4 to day 7) with 10 μM KY02111). Moreover, the “cardiac differentiation (screening conclusion)” value in assay [1] (under appropriate conditions, Table 1) is on record as “promoted”. In addition, in assay [2] (setting [6]), the “expression level of NODAL” value is reported as “not significantly different”. Also, in assay [2] (setting [6]), the “expression of MSGN1, T and MIXL1” value is “reduced”. The “increase of cardiac differentiation” value in assay [3] (setting [7]) is given as “two- to three-fold”.
On to `CCS(=O)(=O)N(C)[C@H]1c2cc(C#N)ccc2OC(C)(C)[C@@H]1O` [Chromanol293B], for which, in assay [4], the “increase in APD90, cells from suspension culture compared with cells from adhesion culture” value is recorded as “significantly higher”.
With `COc1cc2ncnc(Nc3ccc(F)c(Cl)c3)c2cc1OCCCN1CCOCC1` [gefitinib], the “increase of cardiac differentiation” value in assay [3] (setting [7]) is “two- to three-fold”.
In the case of `Cc1cccc(CCN2CCC(C(=O)c3ccc(NS(C)(=O)=O)cc3)CC2)n1` [E4031], the “increase in APD90, cells from suspension culture compared with cells from adhesion culture” value in assay [4] was “not significantly different”.
As to `Cc1c[nH]c(-c2cnc(NCCNc3ccc(C#N)cn3)nc2-c2ccc(Cl)cc2Cl)n1` [CHIR99021], the “cardiomyocyte count on omission of the compound from the six-compound culture” value in the assay on IMR90-1 is recorded as “significant reduction”. Moreover, the “expression of the mesoderm-related genes (MSGN1, T, MIXL1 and NODAL) vs DMSO control” value in assay [2] was “significantly increased”.
As to `CCCCCCCCCCCCCC(=O)O[C@@H]1[C@@H](C)[C@@]2(O)[C@@H](C=C(CO)C[C@]3(O)C(=O)C(C)=C[C@@H]23)[C@@H]2C(C)(C)[C@]12OC(C)=O` [PMA, Phorbol 12-myristate 13-acetate], the “cardiomyocyte count on omission of the compound from the six-compound culture” value in the assay with IMR90-1 is listed as “significant reduction”. In addition, the “GFP fluorescence of colonies” value in assay [5] is recorded as “mostly GFP-positive”. The “expression of the mesoderm-related genes (MSGN1, T, MIXL1 and NODAL) vs DMSO control” value in assay [2] is listed as “reduced”. In assay [3] (0.03 to 0.3 μM in early phase, FIG. 1c), the “increase of cardiac differentiation” value is on record as “three- to eight-fold”.

The record behind these values is patent US10233426B2, “Method for inducing cardiac differentiation of pluripotent stem cell with low-molecular compounds” (KYOTO UNIVERSITY, priority 2014, dated 2019).
